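Step 1: Grow cells in 96-well plates. Step 2: Expose to compound for 48 hours at 5 concentrations. Step 3: Interpolate endpoints linearly; if unreached, use highest concentration. At the GI50, growth is halved. TGI: total growth inhibition.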
Legend:
Test in all cases: NCI-60 cell line screen, 48 h
786-0 renal = test system: 786-0 renal
A498 renal = test system: A498 renal
A549 NSCLC = test system: A549 NSCLC
ACHN renal = test system: ACHN renal
BT-549 breast = test system: BT-549 breast
CAKI-1 renal = test system: CAKI-1 renal
CCRF-CEM leukemia = test system: CCRF-CEM leukemia
COLO 205 colon = test system: COLO 205 colon
DU-145 prostate = test system: DU-145 prostate
EKVX NSCLC = test system: EKVX NSCLC
HCC-2998 colon = test system: HCC-2998 colon
HCT-116 colon = test system: HCT-116 colon
HCT-15 colon = test system: HCT-15 colon
HL-60(TB) leukemia = test system: HL-60(TB) leukemia
HOP-62 NSCLC = test system: HOP-62 NSCLC
HOP-92 NSCLC = test system: HOP-92 NSCLC
HS 578T breast = test system: HS 578T breast
HT29 colon = test system: HT29 colon
IGROV1 ovarian = test system: IGROV1 ovarian
K-562 leukemia = test system: K-562 leukemia
KM12 colon = test system: KM12 colon
LOX IMVI melanoma = test system: LOX IMVI melanoma
M14 melanoma = test system: M14 melanoma
MALME-3M melanoma = test system: MALME-3M melanoma
MCF7 breast = test system: MCF7 breast
MDA-MB-435 = test system: MDA-MB-435
MDA-MB-468 breast = test system: MDA-MB-468 breast

SMILES: C[C@H]1[C@@H](CC(=O)N[C@@H](Cc2coc3ccccc23)B(O)O)O[C@@H]2OC3(C)CC[C@H]4[C@H](C)CC[C@@H]1[C@@]24OO3
- GI50 (786-0 renal): 2840 nM
- TGI (786-0 renal): 15.1 µM
- GI50 (A498 renal): 2280 nM
- TGI (A498 renal): 9.8 µM
- GI50 (A549 NSCLC): 2460 nM
- TGI (A549 NSCLC): > 71 µM
- GI50 (ACHN renal): 2010 nM
- TGI (ACHN renal): > 71 µM
- GI50 (BT-549 breast): 556 nM
- TGI (BT-549 breast): 1800 nM
- GI50 (CAKI-1 renal): 3.63 µM
- TGI (CAKI-1 renal): 21.9 µM
- GI50 (CCRF-CEM leukemia): 322 nM
- TGI (CCRF-CEM leukemia): 5.38 µM
- GI50 (COLO 205 colon): 1890 nM
- TGI (COLO 205 colon): 8.9 µM
- GI50 (DU-145 prostate): 5.47 µM
- TGI (DU-145 prostate): 62.1 µM
- GI50 (EKVX NSCLC): 3.14 µM
- TGI (EKVX NSCLC): 22.2 µM
- GI50 (HCC-2998 colon): 1230 nM
- TGI (HCC-2998 colon): 2300 nM
- GI50 (HCT-116 colon): 783 nM
- TGI (HCT-116 colon): 2290 nM
- GI50 (HCT-15 colon): 363 nM
- TGI (HCT-15 colon): 4.29 µM
- GI50 (HL-60(TB) leukemia): 177 nM
- TGI (HL-60(TB) leukemia): 2040 nM
- GI50 (HOP-62 NSCLC): 2260 nM
- TGI (HOP-62 NSCLC): 8.31 µM
- GI50 (HOP-92 NSCLC): 1340 nM
- TGI (HOP-92 NSCLC): 4.09 µM
- GI50 (HS 578T breast): 1900 nM
- TGI (HS 578T breast): 12 µM
- GI50 (HT29 colon): 1550 nM
- TGI (HT29 colon): 4.86 µM
- GI50 (IGROV1 ovarian): 2260 nM
- TGI (IGROV1 ovarian): 9.3 µM
- GI50 (K-562 leukemia): 1140 nM
- TGI (K-562 leukemia): 13.8 µM
- GI50 (KM12 colon): 1980 nM
- TGI (KM12 colon): 6.32 µM
- GI50 (LOX IMVI melanoma): 892 nM
- TGI (LOX IMVI melanoma): 1990 nM
- GI50 (M14 melanoma): 1330 nM
- TGI (M14 melanoma): 3.86 µM
- GI50 (MALME-3M melanoma): 1070 nM
- TGI (MALME-3M melanoma): 4.58 µM
- GI50 (MCF7 breast): 969 nM
- TGI (MCF7 breast): 15.6 µM
- GI50 (MDA-MB-435): 287 nM
- TGI (MDA-MB-435): 1510 nM
- GI50 (MDA-MB-468 breast): 917 nM
- TGI (MDA-MB-468 breast): 2570 nM

From PubChem BioAssay (NCI)
